Patent US20070093469A1, “Substituted azetidine compounds as cyclooxygenase-1-cyclooxygenase-2 inhibitors, and their preparation and use as medicaments” (LABORATORIOS DEL DR. ESTEVE S.A, priority 2004, published 2007)

Assays:
Cox-1 enzyme = target: T1, Cox-1 enzyme (Ovis aries, UniProt P05979); test: Cox-1/Cox-2 enzyme assay (Cox-1); format: biochemical; details: for IC50: enzyme assay
T1 construct: purchased Cayman Chemical 60100
T1 sequence (P05979 25-600): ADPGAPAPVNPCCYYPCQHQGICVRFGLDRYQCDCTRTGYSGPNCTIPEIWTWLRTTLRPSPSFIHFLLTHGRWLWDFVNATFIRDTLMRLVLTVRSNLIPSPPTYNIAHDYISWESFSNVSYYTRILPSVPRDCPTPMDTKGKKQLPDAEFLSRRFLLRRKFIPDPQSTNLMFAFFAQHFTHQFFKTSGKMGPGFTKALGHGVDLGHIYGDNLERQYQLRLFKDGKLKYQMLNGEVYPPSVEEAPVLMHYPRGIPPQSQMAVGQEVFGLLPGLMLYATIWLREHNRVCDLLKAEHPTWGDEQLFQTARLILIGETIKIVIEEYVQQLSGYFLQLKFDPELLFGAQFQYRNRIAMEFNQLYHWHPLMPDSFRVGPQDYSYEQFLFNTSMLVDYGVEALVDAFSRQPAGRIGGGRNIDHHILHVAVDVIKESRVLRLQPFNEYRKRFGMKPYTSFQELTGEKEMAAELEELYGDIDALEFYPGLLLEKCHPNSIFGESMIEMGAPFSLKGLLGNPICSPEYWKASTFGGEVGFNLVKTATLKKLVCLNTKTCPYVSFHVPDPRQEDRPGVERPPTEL
Method: I. Cox-1/Cox-2 Enzyme Assay:
The Cox-1/Cox-2 enzyme assay for the inventive azetidine compounds is carried out according to the following description:
Immediately after the addition of the substrate, the slope corresponding to the optical density increase at 480 nm is recorded for 1 minute. The reaction is monitored with a Hewlett-Packard 8452A spectrophotometer.

Cox-2 = target: T2, Cox-2 (Homo sapiens, UniProt P35354); test: Cox-2 activity in human whole blood (LPS, PGE2); format: cell-based; details: read-out: hWB inhibition COX-2 IC50
T2 construct: 0.5 ml of fresh human blood; from tissue; host or cells: fresh human whole blood stimulated with E. coli 0111:B4 LPS
T2 sequence (P35354 18-604): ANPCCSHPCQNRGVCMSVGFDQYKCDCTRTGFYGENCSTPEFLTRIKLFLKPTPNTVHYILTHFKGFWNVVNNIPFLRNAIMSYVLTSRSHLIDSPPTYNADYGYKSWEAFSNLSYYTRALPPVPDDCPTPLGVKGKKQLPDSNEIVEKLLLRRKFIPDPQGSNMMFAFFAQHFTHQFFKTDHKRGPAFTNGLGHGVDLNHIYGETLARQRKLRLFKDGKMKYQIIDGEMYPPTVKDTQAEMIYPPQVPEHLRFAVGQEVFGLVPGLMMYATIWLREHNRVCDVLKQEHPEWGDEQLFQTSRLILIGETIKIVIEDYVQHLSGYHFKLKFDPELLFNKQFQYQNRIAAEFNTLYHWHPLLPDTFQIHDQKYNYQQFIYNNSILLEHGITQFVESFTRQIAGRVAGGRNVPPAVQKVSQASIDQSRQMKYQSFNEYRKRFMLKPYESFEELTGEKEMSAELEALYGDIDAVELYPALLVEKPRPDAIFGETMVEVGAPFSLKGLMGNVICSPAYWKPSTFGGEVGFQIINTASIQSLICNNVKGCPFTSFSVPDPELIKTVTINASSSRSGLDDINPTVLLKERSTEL
Method: II. Determination of Cox-1- and Cox-2-Activity in Human Whole Blood
The Cox-1- and Cox-2-activity in human whole blood is determined according to a modification of the method described in the publication of C. Brideau et al., “A human whole blood assay for clinical evaluation of biochemical efficacy of cyclooxygenase inhibitors”, Inflamm Res 1996; 45: 68-74. The respective part of the description is hereby incorporated by reference and forms part of the present disclosure.
For Cox-2 activity determination, tubes are prepared with 2 μl of the compound to be tested or DMSO, 12 μg/ml of aspirine, 9 μl of 1% (weight/volume) sodium heparine and 0.5 ml of fresh human blood. Samples are pre-incubated at 37° C. during 15 minutes and E. coli 0111:B4 LPS (from Sigma Chemical, St. Louis, Mo. U.S.A., catalogue number L-3012) are added for incubation during 24 h at 37° C. The samples are centrifuged for 100 μl of plasma collection. 400 μl of Ethyl acetate and 1% (volume/volume) methanol are added to each sample and the tubes are stirred and centrifuged for 10 minutes at 5000 g at 4° C. 300μl of supernatant are aspirated and evaporated under nitrogen atmosphere. Prostaglandin E2 concentration is quantified using an assay kit from Cayman Chemical, Ann-Arbor, Mich., U.S.A. (Catalogue number: 514010 ) after reconstitution into 300 μl assay buffer supplied in the assay kit.

[1] = system: PGE2 production in rat inflammatory exudate; test: PGE2 production in rat inflammatory exudate; format: in vivo; details: rats, oral route, carrageenan sponge implant, read-out: PGE2 Inflam. exudade ED50
Method: VI: PGE2 Production in Rat Inflammatory Exudate and Gastric Mucosa
The PGE2 production in rat inflammatory exudate and gastric mucosa is carried out as described in the publication of O Tofanetti et al., “Effect of nimesulide on cyclo-oxygenase activity in rat gastric mucosa and inflammatory exudate”, Med Sci Res 17, 745-746 (1989). The respective part of the description is hereby incorporated by reference and forms part of the present disclosure.
For this text 6 male wistar rats (Interfauna-St Feliú de Codines, Barcelona) of approximately 200 g (each approximately 6 weeks of age) are used. The compounds to be tested are administered via oral route in gum Arabic at 5% (weight/volume) at a rate of 10 ml/kg.
One hour after administration of the compounds and under halothane anaesthesia, each rat is implanted subcutaneously in the interescapular area a 40×15×5 mm polyester sponge, soaked in a 0.5% suspension of carrageenan. Rats are sacrificed 6 hours after the implant, the sponges are removed and squeezed. The exudates are collected and centrifuged at 6000×G for 15 minutes.
The rats's stomachs are removed and the gastric mucosa is detached from the underlying layers and by means of a 10 mm diameter die, mucosa samples from an area between the gastric corpus and pyloric antrum are taken. The mucosal PGE2 is extracted. PGE2 concentrations from the inflammatory exudates and the gastric mucosa are determined by means of inmmunoassay reagents of Cayman Chemical kit, Ann Arbor, Mich., U.S.A. (Catalogue number: 514010) according to the manufacturer's instructions.

| Structure (SMILES) | inhibition at 50 µM (Cox-1 enzyme; read-out: % inhibition 5 × 10^−5 M COX-1) [%] | IC50 (Cox-2) [µM] | ED50 [1] [mg/kg] | IC50 (Cox-1 enzyme) [µM] |
| --- | --- | --- | --- | --- |
| CC(C)(C)c1cc(C(=O)N2CC(O)C2)cc(C(C)(C)C)c1 [Example 2, (3,5-di-tert-butyl-phenyly)-(3-hydroxy-azetidin-1-yl)-methanone] | 9 | 0.8 | 5.9 |  |
| CC1C(O)CN1C(=O)c1cc(C(C)(C)C)c(O)c(C(C)(C)C)c1 (stereo not drawn) [Example 4, (3,5-di-tert-butyl-4-hydroxy-phenyl)-(3-hydroxy-2-methyl-azetidin-1-yl)-methanone] |  | 0.5 | 5.8 | 246 |
| CC(C)(C)c1cc(C(=O)N2CC(O)C2)cc2c1OCC2(C)C [Example 14, (7-tert-butyl-3,3-dimethyl-2,3-dihydro-benzofuran-5-yl)-(3-hydroxy-azetidin-1-yl)-methanone] |  | 0.1 | 1.8 | 48.3 |
